Measurements published in patent publication US20070049564A1 (Wyeth, priority 2005, published 2007).
Converted amounts (≈) assume the structure as drawn. Read-outs that look alike come from different tables or passages of the source.

What was measured:
E. coli GC 2235 = test: MIC, broth microdilution; settings: Escherichia coli, GC2235, read-out: MINIMAL INHIBITORY CONCENTRATION MIC, pre-incubated in Water
E. coli GC 2272 = test: MIC, broth microdilution; settings: Escherichia coli, GC2272, read-out: MINIMAL INHIBITORY CONCENTRATION MIC, pre-incubated in Water
E. coli GC 4559 = test: MIC, broth microdilution; settings: Escherichia coli, GC4559, read-out: MINIMAL INHIBITORY CONCENTRATION MIC, pre-incubated in Water
E. coli GC 4560 = test: MIC, broth microdilution; settings: Escherichia coli, GC4560, read-out: MINIMAL INHIBITORY CONCENTRATION MIC, pre-incubated in Water
E. coli GC 6465 = test: MIC, broth microdilution; settings: Escherichia coli, GC6465, read-out: MINIMAL INHIBITORY CONCENTRATION MIC, pre-incubated in Water
E. coli GC 1073 = test: MIC, broth microdilution; settings: Escherichia coli, GC1073, read-out: MINIMAL INHIBITORY CONCENTRATION MIC, pre-incubated in Water
S. typhimurium GC 2172 = test: MIC, broth microdilution; settings: for MIC: Salmonella enterica, TYPHIMURIUM
S. aureus GC 1131 = test: MIC, broth microdilution; settings: Staphylococcus aureus
S. aureus GC 6467 = test: MIC, broth microdilution; settings: Staphylococcus aureus
S. aureus GC 1079 = test: MIC, broth microdilution; settings: for MIC: Staphylococcus aureus
S. aureus GC 4536 = test: MIC, broth microdilution; settings: for MIC: Staphylococcus aureus
S. epidermidis GC 4935 = test: MIC, broth microdilution; settings: Staphylococcus epidermidis
E. faecalis GC 4555 = test: MIC, broth microdilution; settings: for MIC: Enterococcus faecalis
E. faecalis GC 2267 = test: MIC, broth microdilution; settings: for MIC: Enterococcus faecalis
E. faecalis GC 2242 = test: MIC, broth microdilution; settings: Enterococcus faecalis
S. pneumoniae* GC 4465 = test: MIC, broth microdilution; settings: for MIC: Streptococcus pneumoniae
S. pneumoniae+ GC 4465 = test: MIC, broth microdilution; settings: for MIC: Streptococcus pneumoniae
S. agalactiae GC 4564 = test: MIC, broth microdilution; settings: Streptococcus agalactiae, GC4564, read-out: MINIMAL INHIBITORY CONCENTRATION MIC, pre-incubated in Water
c. albicans GC 3066 = test: MIC, broth microdilution
Staph. aureus Smith = test: In vivo activity (oral, iv; ED50) against Staph. aureus Smith in mice
[1] = read-out: MINIMAL INHIBITORY CONCENTRATION MIC, pre-incubated in Mouse Serum
[2] = read-out: MINIMAL INHIBITORY CONCENTRATION MIC, pre-incubated in Water

MIC (E. coli GC 2235): > 64 µg/mL | MIC (E. coli GC 2272): > 64 µg/mL | MIC (E. coli GC 4559): > 64 µg/mL | MIC (E. coli GC 4560): 8 µg/mL (≈ 10.6 µM) | MIC (E. coli GC 6465): > 64 µg/mL | MIC (E. coli GC 1073): > 64 µg/mL | MIC (S. typhimurium GC 2172; [1]): 64 µg/mL (≈ 84.5 µM) | MIC (S. typhimurium GC 2172; [2]): > 64 µg/mL | MINIMAL INHIBITORY CONCENTRATION MIC (S. typhimurium GC 2172; pre-incubated in Mouse Serum): >64 UG/ML | MIC (S. aureus GC 1131; GC1131, read-out: MINIMAL INHIBITORY CONCENTRATION MIC, pre-incubated in Mouse Serum): 2 µg/mL (≈ 2.64 µM) | MIC (S. aureus GC 1131; GC1131, read-out: MINIMAL INHIBITORY CONCENTRATION MIC, pre-incubated in Water): 4 µg/mL (≈ 5.28 µM) | MIC (S. aureus GC 6467; GC6467, read-out: MINIMAL INHIBITORY CONCENTRATION MIC, pre-incubated in Mouse Serum): 4 µg/mL (≈ 5.28 µM) | MIC (S. aureus GC 6467; GC6467, read-out: MINIMAL INHIBITORY CONCENTRATION MIC, pre-incubated in Water): 8 µg/mL (≈ 10.6 µM) | MIC (S. aureus GC 1079; GC1079, read-out: MINIMAL INHIBITORY CONCENTRATION MIC, pre-incubated in Mouse Serum): 2 µg/mL (≈ 2.64 µM) | MIC (S. aureus GC 1079; GC1079, read-out: MINIMAL INHIBITORY CONCENTRATION MIC, pre-incubated in Water): 4 µg/mL (≈ 5.28 µM) | MINIMAL INHIBITORY CONCENTRATION MIC (S. aureus GC 1079; pre-incubated in Mouse Serum): 4 UG/ML | MIC (S. aureus GC 4536; GC4536, read-out: MINIMAL INHIBITORY CONCENTRATION MIC, pre-incubated in Mouse Serum): 2 µg/mL (≈ 2.64 µM) | MIC (S. aureus GC 4536; GC4536, read-out: MINIMAL INHIBITORY CONCENTRATION MIC, pre-incubated in Water): 8 µg/mL (≈ 10.6 µM) | MINIMAL INHIBITORY CONCENTRATION MIC (S. aureus GC 4536; pre-incubated in Mouse Serum): 4 UG/ML | MIC (S. epidermidis GC 4935; GC4935, read-out: MINIMAL INHIBITORY CONCENTRATION MIC, pre-incubated in Mouse Serum): 4 µg/mL (≈ 5.28 µM) | MIC (S. epidermidis GC 4935; GC4935, read-out: MINIMAL INHIBITORY CONCENTRATION MIC, pre-incubated in Water): 8 µg/mL (≈ 10.6 µM) | MIC (E. faecalis GC 4555; GC4555, read-out: MINIMAL INHIBITORY CONCENTRATION MIC, pre-incubated in Mouse Serum): 2 µg/mL (≈ 2.64 µM) | MIC (E. faecalis GC 4555; GC4555, read-out: MINIMAL INHIBITORY CONCENTRATION MIC, pre-incubated in Water): 4 µg/mL (≈ 5.28 µM) | MINIMAL INHIBITORY CONCENTRATION MIC (E. faecalis GC 4555; pre-incubated in Mouse Serum): 4 UG/ML | MIC (E. faecalis GC 2267; GC2267, read-out: MINIMAL INHIBITORY CONCENTRATION MIC, pre-incubated in Mouse Serum): 2 µg/mL (≈ 2.64 µM) | MIC (E. faecalis GC 2267; GC2267, read-out: MINIMAL INHIBITORY CONCENTRATION MIC, pre-incubated in Water): 4 µg/mL (≈ 5.28 µM) | MINIMAL INHIBITORY CONCENTRATION MIC (E. faecalis GC 2267; pre-incubated in Mouse Serum): 4 UG/ML | MIC (E. faecalis GC 2242; GC2242, read-out: MINIMAL INHIBITORY CONCENTRATION MIC, pre-incubated in Mouse Serum): 4 µg/mL (≈ 5.28 µM) | MIC (E. faecalis GC 2242; GC2242, read-out: MINIMAL INHIBITORY CONCENTRATION MIC, pre-incubated in Water): 8 µg/mL (≈ 10.6 µM) | MIC (S. pneumoniae* GC 4465; [1]): 2 µg/mL (≈ 2.64 µM) | MIC (S. pneumoniae* GC 4465; [2]): 4 µg/mL (≈ 5.28 µM) | MINIMAL INHIBITORY CONCENTRATION MIC (S. pneumoniae* GC 4465; pre-incubated in Mouse Serum): 4 UG/ML | MIC (S. pneumoniae+ GC 4465; [1]): 4 µg/mL (≈ 5.28 µM) | MIC (S. pneumoniae+ GC 4465; [2]): 8 µg/mL (≈ 10.6 µM) | MINIMAL INHIBITORY CONCENTRATION MIC (S. pneumoniae+ GC 4465; pre-incubated in Mouse Serum): 8 UG/ML | MIC (S. agalactiae GC 4564): 8 µg/mL (≈ 10.6 µM) | MIC (c. albicans GC 3066; Candida albicans, GC3066, read-out: MINIMAL INHIBITORY CONCENTRATION MIC): > 64 µg/mL | MINIMAL INHIBITORY CONCENTRATION MIC (c. albicans GC 3066; pre-incubated in Mouse Serum): >64 UG/ML
SMILES: CN(C)c1cc(NC(=O)CN(C(=O)OCOC(=O)CC(C)(C)C)C(C)(C)C)c(O)c2c1C[C@H]1C[C@H]3[C@H](N(C)C)C(O)=C(C(N)=O)C(=O)[C@@]3(O)C(O)=C1C2=O [Example 42, ({[(2-{[(5aR,6aS,7S,10aS)-9-(aminocarbonyl)-4,7-bis(dimethylamino)-1,8,10a,11-tetrahydroxy-10,12-dioxo-5,5a,6,6a,7,10,10a,12-octahydrotetracen-2-yl]amino}-2-oxoethyl)(tert-butyl)amino]carbonyl}oxy)methyl 3,3-dimethylbutanoate]
ED50 (Staph. aureus Smith; Staphylococcus aureus, in Mus musculus, iv, read-out: ED50 SIV (Staph aureus Smith)): 1.43 mg/kg | ED50 (Staph. aureus Smith; Staphylococcus aureus, in Mus musculus, po, read-out: ED50 SOD (Staph aureus Smith)): 5.68 mg/kg | ED50 (Staph. aureus Smith; Staphylococcus aureus, in Mus musculus, po, read-out: ED50 Staph Smith SOD): 5.68 mg/kg | ED50 (Staph. aureus Smith; iv, read-out: ED50 Staph Smith SIV): 1.43 mg/kg
